Measurements from US9567371B2, “Short beta-defensin-derived peptides” (Yeda Research and Development Co. Ltd., priority 2009, dated 2017).
Peptide text beside a SMILES is read from it.

How the values were obtained:
pre-B-ALL G2 cells = assay: Cell toxicity assay (propidium iodide exclusion, flow cytometry); assay type: cell-based, human; details: 6 and 24 h, FIG. 1
Description: FIG. 1. […] G2 cells (1×10^6/ml) were cultured in 96-well flat-bottom wells in serum free IMDEM culture medium supplemented with L-glutamine and antibiotics, for 6 and 24 h at 37° C. with the indicated peptides. Untreated cells served as a control. After treatment, cells were stained with propidium iodide (PI) and its exclusion was analyzed by flow cytometry. Data shown are the percentage of Pr (dead) cells. Vertical bars represent standard deviation of duplicate experiments. *P<0.05 compared to untreated control.
Pre-B-ALL G2 cells and freshly isolated primary human CD3^+ T cells (1×10^6/ml) were cultured in 96-well flat-bottom wells in serum free IMDM or RPMI 1640 medium, respectively, both supplemented with L-glutamine and antibiotics, for 6 and 24 hrs at 37° C. (95% humidity, 5% CO2) with 10 μM, 100 μM or 1 mM of the peptides. Untreated cells served as a control. Cell viability was determined by propidium iodide (PI) exclusion by flow cytometry as described (Goichberg, P., et al., 2006).
In order to test cytotoxicity of the peptides, human pre-B-ALL G2 cells and freshly isolated primary human CD3^+ T cells (1×10^6/ml) were cultured in with 10 μM, 100 μM or 1 mM of TL-1, AK-1 and cyclic TL-1, as described in the Material and Methods. All tested peptides were not toxic for G2 cells (FIG. 1) as well as for primary human T cells at 10 μM and 100 μM. Even in the highest concentration, 1 mM, the peptides killed only 8-12% and 14-16% cells treated for 6 and 24 hrs, respectively, indicating a very low cytotoxicity of the peptides.

G2 cells [1] = assay: Transwell migration towards SDF-1; assay type: cell-based, human
Description: (§1) FIGS. 8A-8D. Effect of TL-1 and cyclic TL-1 on in vitro and in vivo cell migration. (A, C) Human CD3^+, G2, cord blood CD34^+ and peripheral blood mononuclear (PBMC) cells were preincubated with 1 and 10 μM TL-1 for 3 hrs in serum free medium, washed and allowed to migrate towards SDF-1. Migrated cells were collected and calculated by flow cytometry. Percentage of migrated cells is presented as compared to untreated (UT) control taken as 100%. (B) G2 cells were similarly preincubated with 10 μM TL-1 or cTL-1 for the indicated periods of time and percentage of migrated cells is depicted. (D) Homing assay. G2 cells were similarly preincubated with 10 μM TL-1 or cTL-1 for 3 hrs, washed and i.v. injected (10×10^6/mouse) to non-irradiated NOD/SCID mice. Percentage of G2 cells in the murine BM and spleens was determined by staining with anti-human CD45 Ab and compared with untreated (UT) cells. […]
FIGS. 9A-9B. […] Migrated cells were collected and calculated by flow cytometry. […]
Various cells (1×10^6/mL), untreated or pretreated with peptides for 3 hrs at 96-well flat bottom plates at 37° C. were washed, 2×10^5 cells/100 μL were added to the upper chambers of Costar 24-well transwell plates with 5 μm pore filters (Corning Inc., Corning, N.Y.) and allowed to migrate for 2-4 hrs at 37° C. […] Migrated cells were collected from the lower chambers and counted using a flow cytometer. […]

[2] = system: G2 cells and mouse BM MNC; assay: Chemotaxis assay (untreated cells migrate towards peptide in bottom chamber); assay type: cell-based; details: 1 and 10 μM peptide in bottom chamber, 4 hrs
Description: FIGS. 9A-9B. AK-1 increases SDF-1-induced migration and chemotaxis of G2 and mouse bone marrow mononuclear cells (BM MNC). (A) G2 cells and mouse BM MNC were preincubated with 1 and 10 μM AK-1 for 3 hrs in serum free medium, washed and allowed to migrate towards SDF-1. Migrated cells were collected and calculated by flow cytometry. Percentage of migrated cells is presented as compared to untreated control taken as 100%. (B) Untreated G2 cells and mouse BM MNC were put to the upper chambers of the transwell plates and allowed to migrate towards 1 and 10 μM AK-1 present the bottom chambers of the transwell plates for 4 hrs. Percentage of migrated cells is presented as compared to untreated (UT) control taken as 100%. Data shown are the mean±SD of 2 separate experiments. *P<0.05 compared to control.
Various cells (1×10^6/mL), untreated or pretreated with peptides for 3 hrs at 96-well flat bottom plates at 37° C. were washed, 2×10^5 cells/100 μL were added to the upper chambers of Costar 24-well transwell plates with 5 μm pore filters (Corning Inc., Corning, N.Y.) and allowed to migrate for 2-4 hrs at 37° C. (95% humidity, 5% CO2) spontaneously or towards 50 ng/mL SDF-1 (rhSDF-1, Peprotech, Rocky Hill, N.J.) in medium supplemented with 10% FCS. […] Migrated cells were collected from the lower chambers and counted using a flow cytometer. […]

G2 cells [3] = assay: Homing assay of pretreated G2 cells in NOD/SCID mice; assay type: in vivo, mouse; details: 10 μM pretreatment 3 hrs, i.v. into non-irradiated NOD/SCID mice, 16 hrs
Description: as §1
G2 cells (10×10^6/mL) pretreated with the peptides for 3 hrs as described above, were injected i.v. into non-irradiated NOD/SCID mice, which were sacrificed 16 hrs later. Samples of BM cells flushed from both femur and tibia bones and spleen cell suspension were prepared, and the percentage of human cells was determined by staining with anti-human CD45-FITC mAb (ImmunoQuality Products, Groningen, The Netherlands) as described (Spiegel, A., et al., 2004).

CCR5 = CCR5 membrane expression (flow cytometry); assay type: cell-based, human; details: tested cells, 3 hrs preincubation
Description: FIGS. 10A-10C. TL-1 and cTL1 down-regulate CXCR4 expression on human cord blood CD34^+ and G2 cells. Human cord blood CD34^+ and G2 cells were incubated with 1 or 10 μM TL-1 or cyclic TL-1 for 3 hrs or left untreated (UT), washed, stained with CXCR4 and CCR5 Ab and analyzed by flow cytometry. Representative histograms from 3 separate experiments are shown. FIG. 10A—effect of TL-1 on CXCR4 expression. FIG. 10B—effect of cTL-1 on CXCR4 expression. FIG. 10C—effects of TL-1 and cTL-1 on CCR5 expression.
(§2) Various cell types (1×10^6/mL) were pretreated with the peptides for 3 hrs as described above, washed and then stained in staining buffer (PBS supplemented with 0.5% FCS and 0.01% sodium azide) with mouse anti-human CXCR4-PE, CCR5-FITC (R&D Systems, Minneapolis, Minn.) or CD45-FITC (ImmunoQuality Products, Groningen, The Netherlands) mAbs for 30 min at 4° C. and analyzed by flow cytometry as described (Kalinkovich, A., et al., 2006). Appropriate IgG were used as the isotype controls.
(§3) Recently, it has been shown that HBD3 could induce internalization of CXCR4 but not of CCR5 in the CEM T cells expressing both CXCR4 and CCR5 (Feng, Z. et al., 2006) implying CXCR4 specificity in HBD3 action.

CD45 = CD45 membrane expression (flow cytometry); assay type: cell-based, human; details: tested cells, 3 hrs preincubation
Description: as §2, §3

N=C(N)NCCC[C@@H]1NC(=O)CNC(=O)[C@H](CCCNC(=N)N)NC(=O)[C@H](CCCCN)NC(=O)[C@H](CCCCN)NC(=O)[C@H](CCCNC(=N)N)NC(=O)[C@H](CCCNC(=N)N)NC(=O)[C@H](CS)NC(=O)[C@H](CS)NC(=O)[C@H](CCCCN)NC1=O [cyclic TL-1, 1,10-cyclo[RGRKCCRRKK]] (cyclo(CCRRKKRGRK))
cellular toxicity (percentage of PI+ dead cells) (pre-B-ALL G2 cells): Low cellular toxicity
SDF-1-induced migration (G2 cells [1]; 1 μM): ineffective
inhibition of SDF-1-induced migration (G2 cells [1]; 10 μM): 2 fold
chemotaxis of untreated cells towards the peptide [2]: ineffective
homing of pretreated G2 cells to the BM (G2 cells [3]): decrease the homing
homing of pretreated G2 cells to the spleen (G2 cells [3]): decreased G2 cell homing
membrane expression of CCR5 (CCR5): either unaffected or slightly increased
membrane expression of CD45 (CD45): either unaffected or slightly increased
